Results published in ChEMBL document CHEMBL1201862, “PubChem BioAssay data set” (2004).
Each block holds one compound with its values, some of them ahead of it. The source made the active and inactive calls.

Experiments:
Format in all cases: functional
[1] = molecular target: Protein disulfide-isomerase (Homo sapiens, UniProt P07237); experiment: PDI inhibitors, insulin aggregation turbidity, dose response, biochemical, absorbance, cherry-picked samples (AID 602350)
[2] = intracellular Trypanosoma cruzi inhibitors in host cells – cell-based, plate reader, cherry-pick samples, set 3, dose response (AID 651818);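 further: compounds incubated with infected cells for about four days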
[3] = molecular target: Multidrug resistance protein CDR1 (Candida albicans, UniProt P43071); experiment: CaCdr1 efflux pump inhibitor potency, dose response, singleplex, Cherry Pick2 set (AID 623996); conditions: read-out: EC50_MICROM
[4] = molecular target: Benomyl/methotrexate resistance protein (Candida albicans, UniProt P28873); experiment: CaMdr1 efflux pump inhibitor potency, dose response, singleplex, Cherry Pick1 hits (AID 588608)
[5] = SAR analysis of small molecule inhibitors of Apaf-1 using a LZ-Caspase-9/Caspase-3 Fluorescent Selectivity assay - Set 2.; conditions: read-out: IC50_Mean
[6] = molecular target: T1, Apoptotic protease-activating factor 1 (Homo sapiens, UniProt O14727); experiment: SAR analysis of small molecule Inhibitors of Apaf-1 in a Fluorescent assay - set 2.; conditions: read-out: IC50_Mean
T1 sequence (O14727 whole entry): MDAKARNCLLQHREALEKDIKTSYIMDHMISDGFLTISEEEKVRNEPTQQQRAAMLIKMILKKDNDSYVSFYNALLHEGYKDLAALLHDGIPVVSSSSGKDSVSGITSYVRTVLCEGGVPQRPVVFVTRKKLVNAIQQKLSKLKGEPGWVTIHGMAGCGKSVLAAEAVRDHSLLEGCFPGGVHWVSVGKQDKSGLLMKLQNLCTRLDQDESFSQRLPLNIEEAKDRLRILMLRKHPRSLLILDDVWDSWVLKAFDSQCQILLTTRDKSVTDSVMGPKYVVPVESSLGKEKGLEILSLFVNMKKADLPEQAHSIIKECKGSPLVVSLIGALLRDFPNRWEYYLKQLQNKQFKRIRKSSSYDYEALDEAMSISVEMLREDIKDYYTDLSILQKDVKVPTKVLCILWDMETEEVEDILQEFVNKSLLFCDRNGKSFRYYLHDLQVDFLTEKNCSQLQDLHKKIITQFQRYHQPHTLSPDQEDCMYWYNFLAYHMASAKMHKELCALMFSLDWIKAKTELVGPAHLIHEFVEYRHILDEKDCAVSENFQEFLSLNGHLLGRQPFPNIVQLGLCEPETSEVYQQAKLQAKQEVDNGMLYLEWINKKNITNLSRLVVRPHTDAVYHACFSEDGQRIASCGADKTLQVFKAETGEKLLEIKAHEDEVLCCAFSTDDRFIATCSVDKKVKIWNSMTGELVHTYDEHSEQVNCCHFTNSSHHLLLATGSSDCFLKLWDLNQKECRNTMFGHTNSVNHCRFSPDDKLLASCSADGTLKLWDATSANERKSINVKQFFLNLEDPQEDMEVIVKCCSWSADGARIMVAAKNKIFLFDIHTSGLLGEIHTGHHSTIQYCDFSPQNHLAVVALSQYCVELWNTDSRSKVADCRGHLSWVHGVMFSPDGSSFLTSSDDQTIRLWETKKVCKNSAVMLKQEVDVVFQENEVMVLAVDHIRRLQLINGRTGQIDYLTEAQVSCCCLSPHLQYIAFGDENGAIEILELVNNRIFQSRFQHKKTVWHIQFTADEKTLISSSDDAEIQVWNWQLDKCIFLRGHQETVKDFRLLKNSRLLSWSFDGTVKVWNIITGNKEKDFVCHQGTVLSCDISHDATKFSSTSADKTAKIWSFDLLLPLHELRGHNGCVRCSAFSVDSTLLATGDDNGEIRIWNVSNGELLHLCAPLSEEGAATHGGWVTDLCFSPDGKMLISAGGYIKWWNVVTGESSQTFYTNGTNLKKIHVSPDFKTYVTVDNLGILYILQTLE

[7] = molecular target: Cyclin-dependent kinase 19 (Homo sapiens, UniProt Q9BWU1); experiment: Navigating the Kinome. Panel member name: CDC2L6
[8] = molecular target: Vascular endothelial growth factor receptor 2 (Homo sapiens, UniProt P35968)
[9] = molecular target: Dual specificity protein kinase CLK4 (Homo sapiens, UniProt Q9HAZ1)
[10] = molecular target: Macrophage colony-stimulating factor 1 receptor (Homo sapiens, UniProt P07333);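 further: value comes from the Navigating the Kinome screening panel, CSF1R member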
Chain of Macrophage colony-stimulating factor 1 receptor (P07333 whole entry): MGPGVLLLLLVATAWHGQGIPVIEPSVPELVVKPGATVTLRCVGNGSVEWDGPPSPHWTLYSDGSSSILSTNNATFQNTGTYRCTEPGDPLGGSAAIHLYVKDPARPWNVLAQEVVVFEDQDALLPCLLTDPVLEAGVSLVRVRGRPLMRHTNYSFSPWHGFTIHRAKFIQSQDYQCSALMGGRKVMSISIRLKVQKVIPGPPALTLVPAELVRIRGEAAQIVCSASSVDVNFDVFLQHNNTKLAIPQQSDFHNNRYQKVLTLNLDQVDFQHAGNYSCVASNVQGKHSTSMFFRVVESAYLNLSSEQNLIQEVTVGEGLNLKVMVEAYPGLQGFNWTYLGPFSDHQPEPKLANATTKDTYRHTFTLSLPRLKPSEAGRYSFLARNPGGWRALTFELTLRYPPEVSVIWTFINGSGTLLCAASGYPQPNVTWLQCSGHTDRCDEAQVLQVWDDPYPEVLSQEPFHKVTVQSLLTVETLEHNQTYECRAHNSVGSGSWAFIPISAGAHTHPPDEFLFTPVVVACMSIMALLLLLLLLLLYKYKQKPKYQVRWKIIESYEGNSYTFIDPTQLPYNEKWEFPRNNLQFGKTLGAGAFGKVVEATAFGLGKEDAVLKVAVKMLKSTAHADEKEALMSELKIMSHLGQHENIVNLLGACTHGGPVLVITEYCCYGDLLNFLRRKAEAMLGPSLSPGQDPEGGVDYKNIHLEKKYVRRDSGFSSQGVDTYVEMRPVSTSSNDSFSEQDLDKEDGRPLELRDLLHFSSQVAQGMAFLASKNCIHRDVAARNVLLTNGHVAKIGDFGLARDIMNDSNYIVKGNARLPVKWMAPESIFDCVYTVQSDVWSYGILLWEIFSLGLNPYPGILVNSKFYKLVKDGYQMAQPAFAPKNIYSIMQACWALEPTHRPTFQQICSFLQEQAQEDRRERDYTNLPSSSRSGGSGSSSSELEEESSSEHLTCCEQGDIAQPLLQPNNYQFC

Chain of Protein disulfide-isomerase (P07237 whole entry): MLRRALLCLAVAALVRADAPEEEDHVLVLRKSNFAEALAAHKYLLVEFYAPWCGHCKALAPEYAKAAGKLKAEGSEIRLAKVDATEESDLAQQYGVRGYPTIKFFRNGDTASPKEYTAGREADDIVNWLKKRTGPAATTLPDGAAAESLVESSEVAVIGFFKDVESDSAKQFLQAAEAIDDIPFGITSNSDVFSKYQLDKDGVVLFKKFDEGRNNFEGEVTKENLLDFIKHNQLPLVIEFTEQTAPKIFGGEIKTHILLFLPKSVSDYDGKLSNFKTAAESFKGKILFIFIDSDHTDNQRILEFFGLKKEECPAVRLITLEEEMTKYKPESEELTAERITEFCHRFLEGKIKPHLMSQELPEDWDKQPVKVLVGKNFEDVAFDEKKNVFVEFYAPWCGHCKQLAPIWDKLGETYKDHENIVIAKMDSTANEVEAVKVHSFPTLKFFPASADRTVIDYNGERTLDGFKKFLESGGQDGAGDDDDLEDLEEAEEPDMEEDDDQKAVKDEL
Chain of Dual specificity protein kinase CLK4 (Q9HAZ1 whole entry): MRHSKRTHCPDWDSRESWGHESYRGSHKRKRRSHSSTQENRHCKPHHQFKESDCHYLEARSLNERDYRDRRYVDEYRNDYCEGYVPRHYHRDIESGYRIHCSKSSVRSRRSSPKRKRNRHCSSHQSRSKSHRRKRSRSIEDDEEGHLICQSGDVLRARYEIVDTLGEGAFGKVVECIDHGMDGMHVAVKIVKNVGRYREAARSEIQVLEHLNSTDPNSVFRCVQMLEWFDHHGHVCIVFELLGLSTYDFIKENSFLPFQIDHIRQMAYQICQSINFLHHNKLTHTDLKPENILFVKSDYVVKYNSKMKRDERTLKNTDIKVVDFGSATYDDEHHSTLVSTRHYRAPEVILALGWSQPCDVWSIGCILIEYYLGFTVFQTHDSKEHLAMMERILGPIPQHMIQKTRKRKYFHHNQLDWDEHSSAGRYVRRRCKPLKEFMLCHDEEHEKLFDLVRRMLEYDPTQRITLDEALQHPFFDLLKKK
Chain of Multidrug resistance protein CDR1 (P43071 whole entry, looked up): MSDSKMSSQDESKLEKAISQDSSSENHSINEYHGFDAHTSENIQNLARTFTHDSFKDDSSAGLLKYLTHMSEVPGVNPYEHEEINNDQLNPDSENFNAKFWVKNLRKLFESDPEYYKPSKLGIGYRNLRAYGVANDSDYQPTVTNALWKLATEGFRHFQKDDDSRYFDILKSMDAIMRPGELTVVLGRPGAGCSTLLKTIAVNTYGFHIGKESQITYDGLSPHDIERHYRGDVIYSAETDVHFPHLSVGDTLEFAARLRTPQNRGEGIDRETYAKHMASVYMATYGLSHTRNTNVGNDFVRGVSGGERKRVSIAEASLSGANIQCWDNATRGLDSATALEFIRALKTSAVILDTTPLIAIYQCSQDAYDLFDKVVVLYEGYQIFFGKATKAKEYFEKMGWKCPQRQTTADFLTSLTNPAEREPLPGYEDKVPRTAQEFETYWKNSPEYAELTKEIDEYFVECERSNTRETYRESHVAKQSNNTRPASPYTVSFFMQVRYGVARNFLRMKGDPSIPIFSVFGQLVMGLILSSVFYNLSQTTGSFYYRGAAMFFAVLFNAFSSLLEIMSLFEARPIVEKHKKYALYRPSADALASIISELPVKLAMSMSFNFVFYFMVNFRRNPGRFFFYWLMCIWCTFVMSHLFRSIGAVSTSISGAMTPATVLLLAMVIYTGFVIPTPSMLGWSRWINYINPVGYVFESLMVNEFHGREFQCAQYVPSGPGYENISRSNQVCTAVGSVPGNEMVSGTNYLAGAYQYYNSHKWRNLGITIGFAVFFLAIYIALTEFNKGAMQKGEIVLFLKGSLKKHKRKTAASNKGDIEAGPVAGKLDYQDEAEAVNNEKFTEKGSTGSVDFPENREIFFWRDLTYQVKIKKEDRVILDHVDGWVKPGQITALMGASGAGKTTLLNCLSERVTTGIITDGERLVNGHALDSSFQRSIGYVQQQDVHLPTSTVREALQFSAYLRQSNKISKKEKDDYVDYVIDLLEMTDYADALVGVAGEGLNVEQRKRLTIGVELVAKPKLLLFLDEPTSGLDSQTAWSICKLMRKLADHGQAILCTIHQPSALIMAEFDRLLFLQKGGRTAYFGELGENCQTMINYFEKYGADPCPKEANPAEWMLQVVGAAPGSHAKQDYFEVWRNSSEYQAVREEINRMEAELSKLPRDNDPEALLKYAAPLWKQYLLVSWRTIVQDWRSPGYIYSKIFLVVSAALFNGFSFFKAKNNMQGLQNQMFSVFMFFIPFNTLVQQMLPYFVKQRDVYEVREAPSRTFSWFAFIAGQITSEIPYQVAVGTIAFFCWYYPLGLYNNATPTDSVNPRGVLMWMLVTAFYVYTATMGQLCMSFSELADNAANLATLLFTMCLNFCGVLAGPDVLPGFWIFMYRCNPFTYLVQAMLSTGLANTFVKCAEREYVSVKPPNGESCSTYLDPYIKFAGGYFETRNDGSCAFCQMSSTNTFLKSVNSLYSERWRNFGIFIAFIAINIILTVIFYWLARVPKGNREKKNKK
Chain of Vascular endothelial growth factor receptor 2 (P35968 whole entry): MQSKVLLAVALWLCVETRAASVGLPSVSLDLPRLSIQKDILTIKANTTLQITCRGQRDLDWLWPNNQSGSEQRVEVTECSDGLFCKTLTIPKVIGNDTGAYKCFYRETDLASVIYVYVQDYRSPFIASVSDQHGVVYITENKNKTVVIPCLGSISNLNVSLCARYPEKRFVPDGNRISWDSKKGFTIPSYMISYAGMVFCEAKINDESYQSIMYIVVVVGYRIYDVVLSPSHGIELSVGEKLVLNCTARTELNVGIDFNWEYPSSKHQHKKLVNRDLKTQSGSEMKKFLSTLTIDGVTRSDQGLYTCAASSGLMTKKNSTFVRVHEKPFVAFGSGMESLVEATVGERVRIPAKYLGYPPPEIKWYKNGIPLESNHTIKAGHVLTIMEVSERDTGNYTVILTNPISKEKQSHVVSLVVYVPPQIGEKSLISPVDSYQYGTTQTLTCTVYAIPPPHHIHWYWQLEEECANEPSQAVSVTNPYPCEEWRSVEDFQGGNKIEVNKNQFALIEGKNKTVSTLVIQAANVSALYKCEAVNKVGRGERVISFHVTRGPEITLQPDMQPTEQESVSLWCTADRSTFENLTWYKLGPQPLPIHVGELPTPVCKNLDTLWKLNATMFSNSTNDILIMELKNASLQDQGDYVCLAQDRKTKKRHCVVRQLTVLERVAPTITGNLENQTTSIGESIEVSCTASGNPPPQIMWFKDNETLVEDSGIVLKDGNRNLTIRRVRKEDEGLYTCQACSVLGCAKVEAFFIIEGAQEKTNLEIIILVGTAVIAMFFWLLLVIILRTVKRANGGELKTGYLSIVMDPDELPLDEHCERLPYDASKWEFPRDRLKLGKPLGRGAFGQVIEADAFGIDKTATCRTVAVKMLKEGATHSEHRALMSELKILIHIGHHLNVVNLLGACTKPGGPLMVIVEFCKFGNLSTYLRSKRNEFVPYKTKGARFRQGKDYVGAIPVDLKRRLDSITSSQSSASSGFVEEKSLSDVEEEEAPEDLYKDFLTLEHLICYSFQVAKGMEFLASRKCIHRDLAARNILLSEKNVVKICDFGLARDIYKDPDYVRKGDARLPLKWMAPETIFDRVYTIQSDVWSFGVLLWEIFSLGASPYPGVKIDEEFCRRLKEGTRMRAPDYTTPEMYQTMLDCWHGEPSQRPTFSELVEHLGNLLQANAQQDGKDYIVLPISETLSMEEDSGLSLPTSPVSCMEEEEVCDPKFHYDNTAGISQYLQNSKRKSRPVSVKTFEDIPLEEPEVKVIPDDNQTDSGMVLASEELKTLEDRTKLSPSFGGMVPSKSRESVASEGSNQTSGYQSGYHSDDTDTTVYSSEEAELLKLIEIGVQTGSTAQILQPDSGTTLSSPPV

Structure (SMILES): C[C@H](CO)N1C[C@H](C)[C@H](CN(C)S(=O)(=O)c2ccc(F)cc2)Oc2ccc(NC(=O)Cc3cn(C)c4ccccc34)cc2C1=O
- AC50 [1]: 19.5 µM (active)
- AC50 [2]: 5.29 µM (active)

Structure (SMILES): CC(C)C(=O)N1CCC2(CC1)Oc1ccc(F)cc1C(=O)C21CC(c2ccccc2)=NO1 (stereo not given)
- EC50 [3]: 23.9 µM (active)
- EC50 [4]: 12.5 µM (active)

- IC50 [5]: 43.4 µM (active)
- IC50 [6]: 53.1 µM (active)
Structure (SMILES): O=C1C(=O)N(Cc2ccc(Cl)c(Cl)c2)c2cc(Cl)ccc21

- Ki [7]: > 100 µM (inactive)
- Ki [8]: > 100 µM (inactive)
- Ki [9]: 10 µM (active)
- Ki [10]: > 100 µM (inactive)
Structure (SMILES): N#Cc1cnn2c(-c3ccccc3)ccnc12
